Measurements from patent publication US20090082329A1 (AVENTIS PHARMA S.A., priority 2006, published 2009).
Where two headings read alike, the source gives them in different places.

Legend:
[1] = biological target: T1, human cytoplasmic domain of IGF-1R (Homo sapiens, UniProt P08069); experiment: Kinase IGF-1R test: inhibition of autophosphorylation of the enzyme (HTRF); format: biochemical; details: ATP 120 μM
T1 construct: The human cytoplasmic domain of IGF-1R was cloned by fusion with glutathione S-transferase (GST); made in house; host or cells: SF21 insect cells (baculovirus, pFastBac-GST)
T1 sequence (P08069 960-1367 limits assumed): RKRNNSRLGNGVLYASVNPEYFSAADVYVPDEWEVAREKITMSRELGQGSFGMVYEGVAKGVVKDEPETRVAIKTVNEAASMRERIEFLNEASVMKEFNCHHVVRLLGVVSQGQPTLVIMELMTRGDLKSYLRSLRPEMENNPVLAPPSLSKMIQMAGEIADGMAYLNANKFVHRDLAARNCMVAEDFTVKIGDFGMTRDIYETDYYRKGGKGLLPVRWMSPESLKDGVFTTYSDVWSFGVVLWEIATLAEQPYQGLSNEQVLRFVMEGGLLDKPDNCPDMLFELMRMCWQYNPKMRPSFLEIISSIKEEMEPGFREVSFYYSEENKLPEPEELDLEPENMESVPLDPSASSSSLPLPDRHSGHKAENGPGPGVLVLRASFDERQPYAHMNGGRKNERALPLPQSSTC
Procedure: A) Experimental Protocol for the Kinase IGF-1R Test:
The inhibitory activity of the compounds on IGF1R is determined by measuring the inhibition of autophosphorylation of the enzyme using a time-resolved fluorescence test (HTRF). The human cytoplasmic domain of IGF-1R was cloned by fusion with glutathione S-transferase (GST) in the baculovirus expression vector pFastBac-GST. The protein is expressed in the SF21 cells and purified to about 80% homogeneity. For the enzymatic test, the test compound at 10 mM dissolved in DMSO is diluted in ⅓ steps in a 50 mM Hepes, pH 7.5, 5 mM MnCl2, 50 mM NaCl, 3% Glycerol, 0.025% Tween 20 buffer. To measure the inhibition, the successive dilutions of the compound are preincubated for 30 minutes and 90 minutes in the presence of 5 nM of enzyme, the final DMSO concentration not exceeding 1%. The enzymatic reaction is initiated to have a final ATP concentration of 120 μM, and is stopped after 5 minutes by addition of 100 mM Hepes, pH 7.0 buffer containing 0.4 M of potassium fluoride, 133 mM EDTA, 0.1% BSA, the XL665-labelled antibody anti-GST and the anti-phosphotyrosine antibody conjugated to europium cryptate Eu—K (Cis-Bio Int.). The characteristics of the two fluorophores, XL-665 and Eu—K, are available in G. Mathis et al., Anticancer Research, 1997, 17, pages 3011-3014. The energy transfer between the excited europium cryptate to the acceptor XL665 is proportional to the degree of autophosphorylation of IGF-1R. The specific long-lasting signal of XL-665 is measured in a GENios Pro TECAN plate counter. The inhibition of autophosphorylation of IGF-1R at time 30 minutes and 90 minutes with the test compounds of the invention is calculated relative to a 1% in DMSO control, whose activity is measured in the absence of compound. The curve representing the percentage of inhibition as a function of the log of the concentration is established to determine the concentration corresponding to 50% inhibition (IC50),

[2] = tested on: MEF-IGF1R cells; experiment: Proliferation/viability of MEF-IGF1R (Thymidine [14C] incorporation); format: cell-based; details: rhIGF1 100 ng/mL, incubation 72 hours, read-out: Test C IC50
Procedure: C) Measurement of the Proliferation/Viability of MEF-IGF1R
Cell culture: the MEF-IGF1R cells (stable clone of cells transfected with the receptor hIGF-1R) are cultured at 37° C. under 5% CO2 in EMEM medium containing 10% FCS.
Test procedure: the cells are seeded at 5000 cells per well in 96-well Cytostar plates (Amersham) with 0.2 mL of EMEM culture medium at 37° C. for 18 hours. The cells are then washed twice with EMEM medium and left to culture without serum for 24 hours. The compounds are then added at various concentrations in the presence of rhIGF1 (100 ng/mL) and 0.1 μCi of Thymidine [^14C] (specific activity ˜50 mCi/mmol) to give 0.2 mL of volume per well. After incubation for 72 hours in the presence of the compound, at 37° C. under 5% CO2, the incorporation of Thymidine [^14C] is measured by counting the radioactivity on a Microbeta trilux counter (Perkin-Elmer). The IC50 is determined from 10 increasing concentrations of the compound.
(i) The tests are performed in duplicate and the mean of the two tests is calculated.
(ii) The value of the signal of the maximum response is calculated from the positive control: cells stimulated with IGF1 without compound.
(iii) Value of the signal of the minimum response is calculated from the negative control: cells not stimulated with IGF1 without compound.
(iv) By using these values as maximum (100%) and minimum (0%), respectively, the data were normalized so as to give a percentage of the maximum response.
(v) A curve of dose response is plotted and the IC50 (the concentration of which the compound induces a 50% decrease in the signal) of the compound is calculated by non-linear regression analysis.

[3] = preincubation 30 minutes with 5 nM enzyme, read-out: Test A 30′ IC50
[4] = preincubation 90 minutes with 5 nM enzyme, read-out: Test A 90′ IC50

| IC50 [1, 3] [nM] | IC50 [1, 4] [nM] | Compound | IC50 [2] [nM] |
| --- | --- | --- | --- |
| 10 to 100 | 10 to 100 | 1-{4-[(5,5-dimethyl-2,4-dioxo-3-{4-[(trifluoro-methyl)thio]phenyl}imidazolidin-1-yl)methyl]pyridin-2-yl}-3-(2-morpholin-4-ylethyl)urea [Example 33] | > 100 |
| 10 to 100 | 10 to 100 | 1-{4-[(5,5-dimethyl-2,4-dioxo-3-{4-[(trifluoro-methyl)thio]phenyl}imidazolidin-1-yl)methyl]pyridin-2-yl}-3-[2-(4-methylpiperazin-1-yl)ethyl]urea [Example 32] | > 100 |
| 10 to 100 | < 10 | CC1(C)C(=O)N(c2ccc(SC(F)(F)F)cc2)C(=O)N1Cc1ccnc(NC(=O)NC2CC(CO)C2)c1 (mixture of isomers) [Example 40B Stage a), 1-{4-[(5,5-dimethyl-2,4-dioxo-3-{4-[(trifluoro-methyl)thio]phenyl}imidazolidin-1-yl)methyl]pyridin-2-yl}-3-[3-(hydroxymethyl)cyclobutyl]urea] |  |
| > 100 | > 100 | CN(C)C(=O)Nc1nccc(CN2C(=O)N(c3ccc(SC(F)(F)F)cc3)C(=O)C2(C)C)n1 [Example 10, 3-{4-[(5,5-dimethyl-2,4-dioxo-3-{4-[(trifluoro-methyl)thio]phenyl}imidazolidin-1-yl)methyl]pyrimidin-2-yl}-1,1-dimethylurea] | > 100 |
| > 100 | > 100 | CN(C)C(=O)Nc1nccc(CN2C(=O)N(c3ccc(S(=O)(=O)C(F)(F)F)cc3)C(=O)C2(C)C)n1 [Example 12, 3-{4-[(5,5-dimethyl-2,4-dioxo-3-{4-[(trifluoro-methyl)sulfonyl]phenyl}imidazolidin-1-yl)methyl]pyrimidin-2-yl}-1,1-dimethylurea] | > 100 |
| > 100 | 10 to 100 | CC1(C)C(=O)N(c2ccc(SC(F)(F)F)cc2)C(=O)N1Cc1ccnc(Nc2cncc(F)c2)c1 [Example 17, 1-({2-[(5-fluoropyridin-3-yl)amino]pyridin-4-yl}-methyl)-5,5-dimethyl-3-{4-[(trifluoromethyl)thio]phenyl}imidazolidine-2,4-dione] | > 100 |
| > 100 | 10 to 100 | CC1(C)C(=O)N(c2ccc(SC(F)(F)F)cc2)C(=O)N1Cc1ccnc(NC(=O)NC2CCCCC2)c1 [Example 25, 1-cyclohexyl-3-{4-[(5,5-dimethyl-2,4-dioxo-3-{4-[(trifluoromethyl)thio]phenyl}imidazolidin-1-yl)methyl]pyridin-2-yl}urea] | > 100 |
| > 100 | 10 to 100 | CC1(C)C(=O)N(c2ccc(SC(F)(F)F)cc2)C(=O)N1Cc1ccnc(NC(=O)NCCN2CCCCC2)c1 [Example 31, 1-{4-[(5,5-dimethyl-2,4-dioxo-3-{4-[(trifluoro-methyl)thio]phenyl}imidazolidin-1-yl)methyl]pyridin-2-yl}-3-(2-piperidin-1-ylethyl)urea] | > 100 |
| > 100 | 10 to 100 | CCCCNC(=O)Nc1cc(CN2C(=O)N(c3ccc(SC(F)(F)F)cc3)C(=O)C2(C)C)ccn1 [Example 37, 1-butyl-3-{4-[(5,5-dimethyl-2,4-dioxo-3-{4-[(tri-fluoromethyl)thio]phenyl}imidazolidin-1-yl)methyl]pyridin-2-yl}urea] | 10 to 100 |
| 10 to 100 | < 10 | CN(C)CCCCNC(=O)Nc1cc(CN2C(=O)N(c3ccc(SC(F)(F)F)cc3)C(=O)C2(C)C)ccn1 [Example 40, 1-[4-(dimethylamino)butyl]-3-{4-[(5,5-dimethyl-2,4-dioxo-3-{4-[(trifluoromethyl)thio]phenyl}imidazolidin-1-yl)-methyl]pyridin-2-yl}urea] | > 100 |

| Compound | IC50 [1, 3] [nM] | IC50 [1, 4] [nM] | IC50 [2] [nM] |
| --- | --- | --- | --- |
| CN(C)CCCNC(=O)Nc1cc(CN2C(=O)N(c3ccc(SC(F)(F)F)cc3)C(=O)C2(C)C)ccn1 [Example 38, 1-[3-(dimethylamino)propyl]-3-{4-[(5,5-dimethyl-2,4-dioxo-3-{4-[(trifluoromethyl)thio]phenyl}imidazolidin-1-yl)methyl]pyridin-2-yl}urea] | 10 to 100 | 10 to 100 | > 100 |
